Laboratory results from US20230183193A1, “4-DIFLUOROMETHYL BENZOYL AMIDES WITH HERBICIDAL ACTION” (BAYER CROPSCIENCE AKTIENGESELLSCHAFT, priority 2017, published 2023).

Assays:
Format in all cases: in vivo
Pharbitis purpureum = experiment: Post-emergence herbicidal action, PHBPU; details: 80 g/ha, Table D
Procedure, shortened: (§1)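 Herbicidal effect is rated visually as percent versus untreated plants (100% = dead, 0% = like control) about 3 weeks after spraying. Plants were sown in sandy loam in the greenhouse and sprayed on green parts at the one-leaf stage, 2 to 3 weeks post-sowing.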

Viola tricolor [1] = experiment: Pre-emergence herbicidal action, VIOTR; details: for Herbicidal efficacy against VIOTR: Table L; for herbicidal activity VIOTR: scored visually after 3 weeks vs untreated controls
Procedure, shortened: (§2)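 Weed seeds were laid out in sandy loam and covered with soil, then the soil surface was treated with an aqueous suspension or emulsion of the formulated compound containing 0.2% wetting agent. Pots stayed in the greenhouse for 3 weeks before damage was rated visually against untreated plants.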

Avena fatua [2] = experiment: Post-emergence herbicidal action, AVEFA; details: for herbicidal activity AVEFA: 80 g/ha, Table C; for Herbicidal efficacy against AVEFA: Table M
Procedure, shortened: as §1

Stellaria media [3] = experiment: Post-emergence herbicidal action, STEME; details: 80 g/ha, Table D
Procedure, shortened: as §1

LOLMU = experiment: Pre-emergence herbicidal action, LOLMU; details: Table L
Abutilon theophrasti [4] = experiment: Pre-emergence herbicidal action, ABUTH; details: dosage 320 g/ha, scored visually after 3 weeks vs untreated controls
Procedure, shortened: as §2

Setaria viridis [5] = experiment: Pre-emergence herbicidal action, SETVI; details: for Herbicidal efficacy against SETVI: Table L; for herbicidal activity SETVI: scored visually after 3 weeks vs untreated controls
Procedure, shortened: as §2

Matricaria inodora [6] = experiment: Post-emergence herbicidal action, MATIN; details: Table M
Method: (§3) Seeds of monocotyledonous and dicotyledonous weed and crop plants are laid out in sandy loam soil in wood-fiber pots, covered with soil and cultivated in a greenhouse under good growth conditions. 2 to 3 weeks after sowing, the test plants are treated at the one-leaf stage. The compounds of the invention, formulated in the form of wettable powders (WP) or as emulsion concentrates (EC), are then sprayed onto the green parts of the plants in the form of an aqueous suspension or emulsion at a water application rate equating to […], with addition of 0.2% wetting agent. After the test plants have been left to stand in the greenhouse under optimal growth conditions for about 3 weeks, the action of the preparations is assessed visually in comparison to untreated controls (herbicidal action in percent (%): 100% activity=the plants have died, 0% activity=like control plants). […] At the same time, inventive compounds leave Gramineae crops such as barley, wheat, rye, millet/sorghum, corn or rice virtually undamaged when applied post-emergence, even at high active compound dosages. In addition, some substances are also harmless to dicotyledonous crops such as soya, cotton, oilseed rape, sugar beet or potatoes. Some of the compounds according to the invention have high selectivity and are therefore suitable for controlling unwanted vegetation in agricultural crops by the post-emergence method. The data of Tables C and D below illustrate, in an exemplary manner, the […] herbicidal action of the compounds according to the invention, the herbicidal activity being stated in percent.
(§4) For comparison, the herbicidal activity of numerous compounds according to the invention was tested with the structurally closest compounds known from the documents WO 2011/035874, WO 2012/028579 and WO 2012/126932, by the pre- and post-emergence method.

Avena fatua [7] = experiment: Pre-emergence herbicidal action, AVEFA; details: for Herbicidal efficacy against AVEFA: Table L; for herbicidal activity AVEFA: scored visually after 3 weeks vs untreated controls
Procedure, shortened: as §2

Cyperus serotinus = experiment: Pre-emergence herbicidal action, CYPES; details: for Herbicidal efficacy against CYPES: Table L; for herbicidal activity CYPES: scored visually after 3 weeks vs untreated controls
Procedure, shortened: as §2

Alopecurus myosuroides [8] = experiment: Pre-emergence herbicidal action, ALOMY; details: for Herbicidal efficacy against ALOMY: Table L; for herbicidal activity ALOMY: scored visually after 3 weeks vs untreated controls
Procedure, shortened: as §2

Stellaria media [9] = experiment: Pre-emergence herbicidal action, STEME; details: dosage 320 g/ha, scored visually after 3 weeks vs untreated controls
Procedure, shortened: as §2

Amaranthus retroflexus [10] = experiment: Pre-emergence herbicidal action, AMARE; details: dosage 320 g/ha, scored visually after 3 weeks vs untreated controls
Procedure, shortened: as §2

Viola tricolor [11] = experiment: Post-emergence herbicidal action, VIOTR; details: for herbicidal activity VIOTR: 80 g/ha, Table D; for Herbicidal efficacy against VIOTR: Table M
Procedure, shortened: as §1

Amaranthus retroflexus [12] = experiment: Post-emergence herbicidal action, AMARE; details: 80 g/ha, Table D
Procedure, shortened: as §1

Polygonum convolvulus = experiment: Pre-emergence herbicidal action, POLCO; details: Table L
Procedure, shortened: as §2

Veronica persica = experiment: Post-emergence herbicidal action, VERPE; details: Table M
Method: as §3, §4

Setaria viridis [13] = experiment: Post-emergence herbicidal action, SETVI; details: for herbicidal activity SETVI: 80 g/ha, Table C; for Herbicidal efficacy against SETVI: Table M
Procedure, shortened: as §1

Matricaria inodora [14] = experiment: Pre-emergence herbicidal action, MATIN; details: dosage 320 g/ha, scored visually after 3 weeks vs untreated controls
Procedure, shortened: as §2

Abutilon theophrasti [15] = experiment: Post-emergence herbicidal action, ABUTH; details: 80 g/ha, Table D
Procedure, shortened: as §1

ECHCG = experiment: Post-emergence herbicidal action, ECHCG; details: 80 g/ha, Table C
Procedure, shortened: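 Weed and crop plants grown in sandy loam in the greenhouse, treated at the one-leaf stage 2–3 weeks after sowing. Damage scored visually after about 3 weeks vs untreated controls (0% = control, 100% = dead).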

Alopecurus myosuroides [16] = experiment: Post-emergence herbicidal action, ALOMY; details: for Herbicidal efficacy against ALOMY: Table M
Procedure, shortened: as §1

Cc1nnc(NC(=O)c2ccc(C(F)F)c([S+](C)[O-])c2C)o1 (stereo not shown) [Example 7-2]
90: Herbicidal efficacy against SETVI (Setaria viridis [5]; dosage 80 g/ha)
70: Herbicidal efficacy against AVEFA (Avena fatua [2]; dosage 20 g/ha) | Herbicidal efficacy against MATIN (Matricaria inodora [6]; dosage 20 g/ha) | Herbicidal efficacy against AVEFA (Avena fatua [7]; dosage 80 g/ha)
30: Herbicidal efficacy against POLCO (Polygonum convolvulus; dosage 80 g/ha)
100%: herbicidal activity VIOTR (Viola tricolor [1]; dosage 320 g/ha) | Herbicidal activity STEME (Stellaria media [3]) | herbicidal activity ABUTH (Abutilon theophrasti [4]) | herbicidal activity SETVI (Setaria viridis [5]; dosage 320 g/ha) | herbicidal activity AMARE (Amaranthus retroflexus [10]) | herbicidal activity VIOTR (Viola tricolor [11]) | herbicidal activity AMARE (Amaranthus retroflexus [12]) | herbicidal activity SETVI (Setaria viridis [13]) | herbicidal activity ABUTH (Abutilon theophrasti [15])
80: Herbicidal efficacy against CYPES (Cyperus serotinus; dosage 80 g/ha) | Herbicidal efficacy against ALOMY (Alopecurus myosuroides [8]; dosage 80 g/ha)
100: Herbicidal efficacy against VIOTR (Viola tricolor [1]; dosage 80 g/ha) | Herbicidal efficacy against VIOTR (Viola tricolor [11]; dosage 20 g/ha) | Herbicidal efficacy against VERPE (Veronica persica; dosage 20 g/ha) | Herbicidal efficacy against SETVI (Setaria viridis [13]; dosage 20 g/ha)
80%: Herbicidal activity STEME (Stellaria media [9])
90%: Herbicidal activity PHBPU (Pharbitis purpureum) | herbicidal activity AVEFA (Avena fatua [2]) | herbicidal activity AVEFA (Avena fatua [7]; dosage 320 g/ha) | herbicidal activity CYPES (Cyperus serotinus; dosage 320 g/ha) | herbicidal activity ALOMY (Alopecurus myosuroides [8]; dosage 320 g/ha) | herbicidal activity MATIN (Matricaria inodora [14]) | Herbicidal activity ECHCG (ECHCG)
10: Herbicidal efficacy against LOLMU (LOLMU; dosage 80 g/ha)

Cc1nnc(NC(=O)c2ccc(C(F)F)c(S(C)(=O)=O)c2C)o1 [Example 7-3]
100%: herbicidal activity VIOTR (Viola tricolor [1]; dosage 320 g/ha) | herbicidal activity AVEFA (Avena fatua [2]) | Herbicidal activity STEME (Stellaria media [3]) | herbicidal activity ABUTH (Abutilon theophrasti [4]) | herbicidal activity SETVI (Setaria viridis [5]; dosage 320 g/ha) | herbicidal activity ALOMY (Alopecurus myosuroides [16]; 80 g/ha, Table C) | herbicidal activity AVEFA (Avena fatua [7]; dosage 320 g/ha) | herbicidal activity CYPES (Cyperus serotinus; dosage 320 g/ha) | herbicidal activity ALOMY (Alopecurus myosuroides [8]; dosage 320 g/ha) | Herbicidal activity STEME (Stellaria media [9]) | herbicidal activity AMARE (Amaranthus retroflexus [10]) | herbicidal activity VIOTR (Viola tricolor [11]) | herbicidal activity SETVI (Setaria viridis [13]) | herbicidal activity MATIN (Matricaria inodora [14]) | herbicidal activity ABUTH (Abutilon theophrasti [15])
100: Herbicidal efficacy against VIOTR (Viola tricolor [1]; dosage 80 g/ha) | Herbicidal efficacy against VIOTR (Viola tricolor [1]; dosage 320 g/ha) | Herbicidal efficacy against AVEFA (Avena fatua [2]; dosage 80 g/ha) | Herbicidal efficacy against LOLMU (LOLMU; dosage 320 g/ha) | Herbicidal efficacy against SETVI (Setaria viridis [5]; dosage 80 g/ha) | Herbicidal efficacy against SETVI (Setaria viridis [5]; dosage 320 g/ha) | Herbicidal efficacy against MATIN (Matricaria inodora [6]; dosage 80 g/ha) | Herbicidal efficacy against ALOMY (Alopecurus myosuroides [16]; dosage 80 g/ha) | Herbicidal efficacy against AVEFA (Avena fatua [7]; dosage 320 g/ha) | Herbicidal efficacy against CYPES (Cyperus serotinus; dosage 80 g/ha) | Herbicidal efficacy against CYPES (Cyperus serotinus; dosage 320 g/ha) | Herbicidal efficacy against ALOMY (Alopecurus myosuroides [8]; dosage 320 g/ha) | Herbicidal efficacy against VIOTR (Viola tricolor [11]; dosage 20 g/ha) | Herbicidal efficacy against VIOTR (Viola tricolor [11]; dosage 80 g/ha) | Herbicidal efficacy against VERPE (Veronica persica; dosage 20 g/ha) | Herbicidal efficacy against VERPE (Veronica persica; dosage 80 g/ha) | Herbicidal efficacy against SETVI (Setaria viridis [13]; dosage 80 g/ha)
90%: Herbicidal activity PHBPU (Pharbitis purpureum) | herbicidal activity AMARE (Amaranthus retroflexus [12]) | Herbicidal activity ECHCG (ECHCG)
90: Herbicidal efficacy against AVEFA (Avena fatua [2]; dosage 20 g/ha) | Herbicidal efficacy against MATIN (Matricaria inodora [6]; dosage 20 g/ha) | Herbicidal efficacy against AVEFA (Avena fatua [7]; dosage 80 g/ha) | Herbicidal efficacy against ALOMY (Alopecurus myosuroides [8]; dosage 80 g/ha) | Herbicidal efficacy against SETVI (Setaria viridis [13]; dosage 20 g/ha)
40: Herbicidal efficacy against POLCO (Polygonum convolvulus; dosage 80 g/ha)
70: Herbicidal efficacy against POLCO (Polygonum convolvulus; dosage 320 g/ha)
80: Herbicidal efficacy against LOLMU (LOLMU; dosage 80 g/ha)
60: Herbicidal efficacy against ALOMY (Alopecurus myosuroides [16]; dosage 20 g/ha)
